Source: patent US20250108036A1, “COMPOSITIONS FOR REMOVING SENESCENT CELLS AND USES THEREOF” (LIFECEUTIX CO., LTD., priority 2021, published 2025)

Tests used:
[1] = read-out: MST Kd; cited from earlier work
HMGN1 [2] = assay: HMGN1 ELISA in culture medium of A549 cancer cells (Example 12, Table 66); assay type: cell-based, human; conditions: Homo sapiens, A549, doxorubicin-induced senescent A549 cells, test compound 30 μM, ELISA, DMSO = 100; read-out: HMGN1 (amount of HMGN1 secreted in the cell culture)
[3] = test system: foreskin cells in which senescence was induced by doxorubicin; assay: CellTiter-Glo cell viability of doxorubicin-induced senescent foreskin cells (Examples 1-2, 10, 11, 13; Tables 4, 63, 65); assay type: cell-based, human; conditions: for cell death, senescent cells: 30 μM, 3 days; for viability at 1.1 µM: 1.1 μM test compound; for viability at 10 µM: 10 μM test compound; for viability at […]: […] test compound
Experimental: (§1) After 3 days, cell viability was measured using CellTiter-Glo Luminescent Cell Viability Assay (Promega) or light microscopy.

[4] = test system: normally proliferating foreskin cells; assay: survival of normally proliferating foreskin cells treated with medium supernatant (secreted fluid) of compound-killed cells (Example 13, Table 68); assay type: cell-based, human; conditions: after 3 days
Experimental: After treating cells with the test compound at a high concentration that induces the death of most cells in both non-senescence-induced and senescence-induced cells, the cells were washed three times with PBS to remove the test compound, and replaced with fresh medium and cultured for an additional 3 hours at the time when the compound has entered into the cell but has not yet induced cell death (approximately 1 to 3 hours after compound treatment). During this additional culture, by checking with an optical microscope, etc., the medium supernatants containing secreted fluid from normally proliferating and senescent cells in which cell death was induced were obtained. The obtained medium supernatant was replaced with the medium of normally proliferating and senescent cells, respectively, and cell survival rate was measured after 3 days.

[5] = test system: foreskin cells in which senescence was not induced; assay: CellTiter-Glo growth of foreskin cells in which senescence was not induced (Tables 5, 12); conditions: 30 μM, 3 days
Experimental: as §1

A549 = assay: CellTiter-Glo cell viability of senescent A549 cancer cells (Example 12, Table 67); assay type: cell-based, human; conditions: Homo sapiens, A549, doxorubicin-induced senescent A549 cancer cells, CellTiter-Glo, read-out: Survival (%); for viability at 1.1 µM: 1.1 μM test compound
HMGN1 [6] = assay: HMGN1 ELISA in culture medium of foreskin cells (Examples 10, 11; Tables 62, 63, 64); assay type: cell-based, human; conditions: for activity at 30 µM: Homo sapiens, 30 μM test compound, doxorubicin-treated foreskin cells, DMSO = 100, read-out: HMGN1
senescent foreskin cells = assay: survival of senescent foreskin cells treated with medium supernatant (secreted fluid) of compound-killed cells (Example 13, Tables 68, 69); assay type: cell-based, human; conditions: supernatant-treated cells: senescent cells, after 3 days
Experimental: as §1

[7] = test system: foreskin cells in which aging was induced by doxorubicin; assay: cell viability of senescent foreskin cells with caspase inhibitor QVD-Oph (Example 10, Table 61); assay type: cell-based, human; conditions: ABT-263 1 μM; for Survial (%): doxorubicin-senescent foreskin cells, 3 days
HMGB1 = HMGB1 ELISA in culture medium of senescent foreskin cells (Example 10, Table 62); assay type: cell-based, human
Experimental: After 6 hours, the amounts of HMGB1 and HMGN1 secreted into the cell culture medium were measured using an enzyme-linked immunosorbent assay (ELISA Kit, purchased from AssayGenie).

[8] = Homo sapiens, 72 h, doxorubicin-induced senescent foreskin cells, CellTiter-Glo, 0 μM = 100, read-out: Survival (%)
[9] = supernatant from compound-treated medium without cells (No Cells)
[10] = supernatant from death-induced proliferating foreskin cells (compound 30 μM)
[11] = supernatant from death-induced senescent foreskin cells (compound 30 μM)
[12] = 1 μM, culture medium after 6 hours, senescent foreskin cells
[13] = ABT-263 1 μM or LX-112 10 μM, 6 hours

## CCC(C)C(C(=O)OC(C)(C)C)N1C(=O)c2ccccc2C1=O (stereo not shown) [QW-050]
[1]
  Kd: 2430 nM

## COc1ccc(N(C(=O)CCl)C(C(=O)NCCc2ccccc2)c2cccs2)cc1Cl (stereo not shown) [LX-402]
HMGN1 [2]
  activity at 30 µM: 340%
[3]
  cell death, senescent cells: induced the death of most cells
[3]; [8]
  viability at 1.1 µM: 67.2%
  viability at 10 µM: 4.5%
  viability at […]: 27%
[4]; [9]
  Survival (%): 97.1 (±5.9) %
[4]; [10]
  Survival (%): 78.1 (±3.8) %
[4]; [11]
  Survival (%): 101.1 (±2.2) %
[5]
  cell death, normally proliferating cells: induced the death of most cells
A549
  viability at 1.1 µM: 71.6%
HMGN1 [6]
  activity at 30 µM: 298%
Senescent foreskin cells; [9]
  Survival (%): 98 (±3.6) %
Senescent foreskin cells; [10]
  Survival (%): 31 (±1.2) %
Senescent foreskin cells; [11]
  Survival (%): 48.3 (±2.1) %

## CC(C)(C)OC(=O)C(C)(C)N1C(=O)c2ccccc2C1=O [QW-020]
[1]
  Kd: 2140 nM

## CC(C)(C)OC(=O)C(N1C(=O)c2ccccc2C1=O)C(C)(C)C (stereo not shown) [QW-034]
[1]
  Kd: 979 nM

## CC(C)(C)OC(=O)CCCN1C(=O)c2ccccc2C1=O [LX-407]
HMGN1 [2]
  activity at 30 µM: 339%
[3]; [8]
  viability at 1.1 µM: 15.9%
[1]
  Kd: 399 nM
A549
  viability at 1.1 µM: 29.4%
HMGN1 [6]
  activity at 30 µM: 299%

## CC(C(=O)OC(C)(C)C)N1C(=O)c2ccccc2C1=O (stereo not shown) [QW-023]
[1]
  Kd: 1780 nM

## CC1(C)CCC(c2ccc(Cl)cc2)=C(CN2CCN(c3ccc(C(=O)NS(=O)(=O)c4ccc(N[C@H](CCN5CCOCC5)CSc5ccccc5)c(S(=O)(=O)C(F)(F)F)c4)cc3)CC2)C1 [ABT-263, reference compound]
[7]; QVD-Oph 20 μM applied 4 hours before
  Survial (%): 98.4 (±2.6) %
[7]; without QVD-Oph
  Survial (%): 23.8 (±5.5) %
[7]; QVD-Oph 20 μM, LX-112 10 μM
  inhibition of the death of senescent cells by the caspase inhibitor: completely inhibited
HMGB1; [12]
  HMGB1 (pg/ml): 462.7 (±21.6) pg/ml
HMGB1; [13]
  HMGB1 secreted in the culture medium from dying senescent cells: little change
HMGN1 [6]; [12]
  HMGN1 (pg/ml): 105.3 (±13.5) pg/ml
HMGN1 [6]; [13]
  HMGN1 secreted in the culture medium from dying senescent cells: no significant change

## Cc1onc(C(=O)N2CCN(C(c3ccc(Cl)cc3)c3ccc(Cl)cc3)CC2)c1N(O)O [LX-401]
HMGN1 [2]
  activity at 30 µM: 277%
[3]
  cell death, senescent cells: induced the death of most cells
[3]; [8]
  viability at 1.1 µM: 20.4%
  viability at 10 µM: 10.6%
  viability at […]: 12.4%
[3]; Homo sapiens, 72 h, 30 μM test compound, doxorubicin-induced senescent foreskin cells, CellTiter-Glo, 0 μM = 100, read-out: Survival (%)
  viability at 30 µM: 7.8%
[4]; [9]
  Survival (%): 97.9 (±7.2) %
[4]; [10]
  Survival (%): 88.1 (±4.2) %
[4]; [11]
  Survival (%): 95.1 (±5.7) %
[5]
  cell death, normally proliferating cells: induced the death of most cells
A549
  viability at 1.1 µM: 89.7%
A549; 10 μM test compound
  viability at 10 µM: 42.1%
A549; 30 μM test compound
  viability at 30 µM: 16.8%
HMGN1 [6]
  activity at 30 µM: 263%
Senescent foreskin cells; [9]
  Survival (%): 101.1 (±5.5) %
Senescent foreskin cells; [10]
  Survival (%): 48.2 (±4.2) %
Senescent foreskin cells; [11]
  Survival (%): 42.2 (±4)^ %

## CC(C)(C)OC(=O)CCCCCN1C(=O)c2ccccc2C1=O [QW-029]
[1]
  Kd: 2100 nM

## CC(C)(C)OC(=O)CCN1C(=O)c2ccccc2C1=O [QW-011]
[1]
  Kd: 926 nM
